Assay results from patent US20100254965A1, “Adenosine Signaling in Diagnosis, Treatment, and Prevention of Priapism and Erectile Dysfunction” (BOARD OF REGENTS ,THE UNIVERSITY OF TEXAS SYSTEM, priority 2006, published 2010).

System: corpus cavernosal smooth muscle cells (CCSM)
Assay: cGMP levels in primary CCSM / PVSM
Format: cell-based, mouse
Settings: CCSM/PVSM of both wild type and A2BR deficient mice, 10 min
Text: Results for wild-type and A2B^−/− mouse were statistically significant, p<0.01.
FIG. 18. Adenosine stimulated both cAMP and cGMP induction in corpus cavernosal smooth muscle cells (CCSM) via A2BR activation. (a) Adenosine receptor expression profile in purified primary CCSM. CCSM were purified from adult mouse penes. […] (b) CCSM were isolated and cultured from mouse penes. The cells were switched to serum-free medium and treated with different concentrations of adenosine with or without A2BR antagonist (MRS1706-10 μM), A2AR antagonist (ZM241385-50 nM) or A2AR agonist (CGS-21680-10 μM) alone for 10 min. Then cellular extracts were collected and cAMP levels were measured using an ELISA kit. The data represent mean±SE. *p<0.05, adenosine treated versus the untreated; **p<0.05, adenosine plus MRS1706 or ZM241385 versus the adenosine treated. (c) CCSM were isolated from penes of the wild type and A2BR-deficient mice and cultured with or without adenosine (100 μM), NECA (10 μM), a potent adenosine receptor agonist, forskolin (10 μM), an adenylyl cyclase agonist. […] N=4. *p<0.05, adenosine, forskolin and NECA treated versus the untreated control. (d) Corpus cavernosal strips (CCS) were isolated from wild type and A2BR-deficient mice and treated with different concentrations of adenosine in the presence or absence of L-NAME (100 μM) or MRS1706 (10 μM). 10 min after treatment, cellular extracts were collected and cGMP levels were measured by using a commercial enzyme immunoassay kit (Amersham Pharmacia). Data are expressed as mean±SE. *p<0.05, adenosine treated versus the control; **p<0.05, adenosine treated with MRS1706 versus the adenosine treated; ***p<0.05, CCS of A2BR-deficient mice treated with adenosine versus the CCS of wild type mice treated with adenosine. N=6-7. (e) CCSM were isolated from wild type and A2BR deficient mice and cultured with or without adenosine (100 μM), NECA (10 μM), a potent adenosine receptor agonist, forskolin (10 μM), an adenylyl cyclase agonist, or diethylamine-NONOate (DEA/NO) (10 μM). […] N=4. *p<0.05, DEA/NO treated versus to the untreated control. (f) Both cAMP and cGMP induction contribute to adenosine-mediated decreased PE-induced phosphorylation of myosin light chain (MLC). CCSM and CCS were isolated and cultured with the treatment of phenylephrine (PE-10 μM) in the presence or absence of adenosine (100 μM) or L-NAME (100 μM). 10 min after treatment, cellular extracts were isolated and western blot analysis were performed. The total MLC and phosphorylated MLC at S20 were detected by specific antibodies.
Isolation of primary corpus cavernosal smooth muscle cells (CCSM). Corpus cavernosum tissues were dissected as described above. Cavernosal tissue was washed in PBS and minced into […] pieces. Segments were incubated in 5-10 ml enzyme solutions containing 0.02% collagenase A (0.272 U/mg protein, Roche, Mannheim, Germany) and 0.5% elastase (3.73 U/mg protein, Cell system, St Katharinen, Germany) in a 75 mm flask at 37° C. for 6 hours. Enzymatic digestion was terminated by adding 10 ml DMEM supplemented with 10% fetal calf serum (FCS). […]
Tissue and corpus cavernosum smooth muscle cell (CCSM) cAMP and cGMP measurement. Quantitative assays for cAMP and cGMP were performed by using a commercial enzyme immunoassay kit (Amersham Pharmacia). […]

## Nc1ncnc2c1ncn2[C@@H]1O[C@H](CO)[C@@H](O)[C@H]1O [adenosine]
  cGMP levels: lack of significant differences in cGMP production
Listed as Adenosine
  cGMP levels: had no effect
